*1 amine or outer side, *2 acyl side, *3 side chain or, on linkers, in order; H or OH if unused. Where a SMILES comes first, the peptide text is derived from it. Bridges are numbered along the chain shown (N, C = ends). [ ]: non-standard residue; d: D form. The star is where a group is joined. hPhe(3-Cl-4-CF3) = N[C@@H](CCc1ccc(C(F)(F)F)c(Cl)c1)C(=O)O; X32 = COCCN([C@@H](Cc1ccc(C(F)(F)F)cc1)C(=O)[*:2])[*:1]; NPrPhe(4-CF3) = CCCN[C@@H](Cc1ccc(C(F)(F)F)cc1)C(=O)O; 3Oxa8azabicyclo(3.2.1)octane = C1CC2COCC1N2*; Pip(4,4-F2) = O=C(O)[C@@H]1CC(F)(F)CCN1; NMeGly(cPent) = CN[C@H](C(=O)O)C1CCCC1; Pro(4,4-Me2) = CC1(C)CN[C@H](C(=O)O)C1; NMeD = CN[C@@H](CC(=O)O)C(=O)O; NMeL = CN[C@@H](CC(C)C)C(=O)O; Morpholide = C1CN(*)CCO1; NMeA = CN[C@@H](C)C(=O)O; Ac5c = NC1(C(=O)O)CCCC1; Aze = O=C(O)[C@@H]1CCN1; NEtG = CCNCC(=O)O; Sar = CNCC(=O)O
Columns and labels:
[1] = biological target: GDP-bound NRAS wild-type protein (Homo sapiens, UniProt P01111); assay: Binding to NRAS by surface plasmon resonance (SPR), Single Cycle Kinetics
Sequence of GDP-bound NRAS wild-type protein (P01111 whole entry): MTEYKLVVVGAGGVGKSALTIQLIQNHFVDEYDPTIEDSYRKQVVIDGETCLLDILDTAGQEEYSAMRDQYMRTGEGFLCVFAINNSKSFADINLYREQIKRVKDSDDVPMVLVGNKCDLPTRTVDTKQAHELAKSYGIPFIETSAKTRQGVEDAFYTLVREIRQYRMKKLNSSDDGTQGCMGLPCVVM

[2] = biological target: GDP-bound HRAS wild-type protein (Homo sapiens, UniProt P01112); assay: Binding to HRAS by surface plasmon resonance (SPR), Single Cycle Kinetics
Sequence of GDP-bound HRAS wild-type protein (P01112 whole entry): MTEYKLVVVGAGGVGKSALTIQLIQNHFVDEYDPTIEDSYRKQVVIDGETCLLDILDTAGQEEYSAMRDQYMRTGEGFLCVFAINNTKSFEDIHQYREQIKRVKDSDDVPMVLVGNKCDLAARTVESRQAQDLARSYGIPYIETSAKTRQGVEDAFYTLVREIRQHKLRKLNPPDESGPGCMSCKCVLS

SMILES	NRAS/KRAS (ratio of KD for GDP-bound NRAS wild-type to KD for KRAS) ([1]; SPR)	HRAS/KRAS (ratio of KD for GDP-bound HRAS wild-type to KD for KRAS) ([2]; SPR)	also measured
CCCN1C(=O)CN(C)C(=O)[C@@H]2CCN2C(=O)[C@H]([C@@H](C)CC)NC(=O)[C@H](CC(C)C)N(C)C(=O)C[C@@H](C(=O)N2CCOCC2)N(C)C(=O)[C@H](C2CCCC2)N(C)C(=O)C2(CCCC2)NC(=O)[C@@H]2CC(F)(F)CCN2C(=O)[C@H](CCc2ccc(C(F)(F)F)c(Cl)c2)NC(=O)CN(C)C(=O)[C@@H]1Cc1ccc(C(F)(F)F)cc1 [PP0312] ([NMeL]I[Aze][Sar][NPrPhe(4-CF3)][Sar][hPhe(3-Cl-4-CF3)][Pip(4,4-F2)][Ac5c][NMeGly(cPent)][NMeD]-Morpholide; lactam N-11)	B (a compound having 3 or more and less than 10 is denoted as B)	B (a compound having 3 or more and less than 10 is denoted as B)	
CC[C@H](C)[C@@H]1NC(=O)[C@H](COC)N(C)C(=O)C[C@@H](C(=O)N(C)C)N(C)C(=O)[C@H](C2CCCCC2)N(C)C(=O)C2(CC(C)(C)C2)NC(=O)[C@@H]2C[C@@H](OC(C)C)CN2C(=O)[C@H](CCc2cc(F)c(C(F)(F)F)c(F)c2)NC(=O)CN(C)C(=O)[C@H](Cc2ccc(C(F)(F)F)cc2)N2CC/C=C\C[C@@H](C2=O)N(C)C(=O)CN(C)C1=O [PP2654]			NRAS/KRAS (ratio of KD value with respect to GDP-bound NRAS wild-type protein to KD value with respect to KRAS) ([1]; class symbols): A (a compound having 10 or more and less than 20 is denoted as A); HRAS/KRAS (ratio of KD value with respect to GDP-bound HRAS wild-type protein to KD value with respect to KRAS) ([2]; class symbols): A (a compound having 10 or more and less than 20 is denoted as A)
CC[C@H](C)[C@@H]1NC(=O)[C@H](CC(C)C)N(C)C(=O)C[C@@H](C(=O)N2CCOCC2)N(C)C(=O)[C@H](C2CCCC2)N(C)C(=O)C2(CCCC2)NC(=O)[C@@H]2CCCN2C(=O)[C@H](CCc2ccc(C(F)(F)F)c(Cl)c2)NC(=O)CN(C)C(=O)[C@H](Cc2ccc(C(F)(F)F)cc2)N(CCOC)C(=O)[C@@H]2CCN2C(=O)[C@H](C)N(C)C1=O [PP0118] ([NMeL]I[NMeA][Aze][X32][Sar][hPhe(3-Cl-4-CF3)]P[Ac5c][NMeGly(cPent)][NMeD]-Morpholide; lactam N-11)	C (A compound having a KD ratio of 0.1 or more and less than 3 is denoted as C)	C (A compound having a KD ratio of 0.1 or more and less than 3 is denoted as C)	
CCCN1C(=O)[C@@H]2CCN2C(=O)[C@H](C)N(C)C(=O)[C@H]([C@@H](C)CC)NC(=O)[C@H](CC(C)C)N(C)C(=O)C[C@@H](C(=O)N2C3CCC2COC3)N(C)C(=O)[C@H](C2CCCC2)N(C)C(=O)C2(CCCC2)NC(=O)[C@@H]2CCCN2C(=O)[C@H](CCc2ccc(C(F)(F)F)c(Cl)c2)NC(=O)CN(C)C(=O)[C@@H]1Cc1ccc(C(F)(F)F)cc1 [PP0182] ([NMeL]I[NMeA][Aze][NPrPhe(4-CF3)][Sar][hPhe(3-Cl-4-CF3)]P[Ac5c][NMeGly(cPent)][NMeD]-{3Oxa8azabicyclo(3.2.1)octane}; lactam N-11)	C (A compound having a KD ratio of 0.1 or more and less than 3 is denoted as C)	B (a compound having 3 or more and less than 10 is denoted as B)	
CCC[C@H]1C(=O)N[C@@H]([C@@H](C)CC)C(=O)N2CCC[C@H]2C(=O)N(C)[C@H]2C/C=C\CCN(C2=O)[C@@H](Cc2ccc(C(F)(F)F)cc2)C(=O)N(C)CC(=O)N[C@@H](CCc2ccc(C(F)(F)F)c(OC)c2)C(=O)N2C[C@H](OCC)C[C@H]2C(=O)N(C)C2(CCC2)C(=O)N(C)[C@@H](C2CCCC2)C(=O)N(C)[C@H](C(=O)N(C)C)CC(=O)N1C [PP2320, (1S,4S,10S,13S,17S,20S,26S,28R,32S,38S,42Z)-20-cyclopentyl-28-ethoxy-32-[2-[3-methoxy-4-(trifluoromethyl)phenyl]ethyl]-N,N,2,14,18,21,24,36-octamethyl-10-[(1S)-1-methylpropyl]-3,9,12,15,19,22,25,31,34,37,45-undecaoxo-13-propyl-38-[[4-(trifluoromethyl)phenyl]methyl]spiro[2,8,11,14,18,21,24,30,33,36,39-undecazatetracyclo[37.5.1.0^4,8.0^26,30]pentatetracont-42-ene-23,1′-cyclobutane]-17-carboxamide]			NRAS/KRAS (ratio of KD value with respect to NRAS to KD value with respect to KRAS) ([1]; SPR, GDP-bound NRAS wild-type vs GDP-bound KRAS wild-type): A (a compound having 10 or more and less than 20 is denoted as A); HRAS/KRAS (ratio of KD value with respect to HRAS to KD value with respect to KRAS) ([2]; SPR, GDP-bound HRAS wild-type vs GDP-bound KRAS wild-type): A (a compound having 10 or more and less than 20 is denoted as A)
CCCN1C(=O)CN(C)C(=O)CN(CC)C(=O)[C@H]([C@@H](C)CC)NC(=O)[C@H](CC(C)C)N(C)C(=O)C[C@@H](C(=O)N2CCOCC2)N(C)C(=O)[C@H](C2CCCC2)N(C)C(=O)C2(CCCC2)NC(=O)[C@@H]2CC(C)(C)CN2C(=O)[C@H](CCc2ccc(C(F)(F)F)c(Cl)c2)NC(=O)CN(C)C(=O)[C@@H]1Cc1ccc(C(F)(F)F)cc1 [PP0450] ([NMeL]I[NEtG][Sar][NPrPhe(4-CF3)][Sar][hPhe(3-Cl-4-CF3)][Pro(4,4-Me2)][Ac5c][NMeGly(cPent)][NMeD]-Morpholide; lactam N-11)			NRAS/KRAS (ratio of KD value with respect to GDP-bound NRAS wild-type protein to KD value with respect to KRAS) ([1]; SPR): B (a compound having 3 or more and less than 10 is denoted as B); HRAS/KRAS (ratio of KD value with respect to GDP-bound HRAS wild-type protein to KD value with respect to KRAS) ([2]; SPR): C (A compound having a KD ratio of 0.1 or more and less than 3 is denoted as C)
